Results on 2 molecules are retold here after paper PMC4274664, “Arabidopsis cytosolic acyl-CoA-binding proteins ACBP4, ACBP5 and ACBP6 have overlapping but distinct roles in seed development” (Bioscience Reports, 2014).

Assay [1] addresses T1, rAtACBP6 (Arabidopsis thaliana, UniProt P57752).
T1 construct: made in house; host or cells: Escherichia coli
T1 sequence (P57752 1-92): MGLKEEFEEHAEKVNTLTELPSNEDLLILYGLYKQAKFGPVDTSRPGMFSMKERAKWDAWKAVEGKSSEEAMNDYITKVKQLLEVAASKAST
The assay is described as follows: ITC of acyl-CoA esters binding to rAtACBP6. The note with it: ITC, 30°C, 10 mM sodium phosphate buffer pH 7.0. The text has this:
(§1) The protein expression plasmids containing full-length AtACBP4 and AtACBP5 cDNA were previously constructed in the vector pRSETB (Invitrogen) as pAT184 and pAT185, respectively. Recombinant (His)6-AtACBP4 and (His)6-AtACBP5 proteins (rAtACBP4 and rAtACBP5) were expressed in Escherichia coli, purified and refolded according to Leung et al.. The coding sequence of AtACBP6 was amplified by PCR with primer pairs ACBP-F1 and ACBP-R1 and cloned into expression vector pEXP5-NT/TOPO (Invitrogen) to generate plasmid pEXP-ACBP6. Sequences of primers are listed in Supplementary Table S1. Recombinant (His)6-AtACBP6 (rAtACBP6) was expressed in E. coli and purified following Chye. The three recombinant proteins were dialysed in 10 mM sodium phosphate buffer (pH 7.0). Protein concentrations were determined by the standard Bradford assay (Bio-Rad).
(§2) Calorimetric titration was performed with a MicroCal iTC200 system (GE Healthcare) at 30°C. Long-chain acyl-CoA esters (Avanti Polar Lipids, Inc.) were dissolved in 10 mM sodium phosphate buffer (pH 7.0) to a final concentration of 0.25, 0.5 and 1 mM. The solution was degassed and loaded into a syringe, while 15 μM rAtACBP6, 6 μM rAtACBP4 or 60 μM rAtACBP5, was placed into the sample cell. For all titrations, 1.8 μl ligand was injected into the sample cell at 150 s intervals with a stirring speed of 1000 rpm. The titrations were completed after 20 injections. All data were collected automatically, and non-specific heat effects were estimated and corrected after saturation following the instructions of the manufacturer. Raw data were integrated and analysed using the Origin v.7.0 software accompanying the calorimeter.

For assay [2], the target named is yeast ACBP. Also noted: method as in PMID 8093000. The following applies: read-out: binding affinity; cited from earlier work.
For assay [3], the target named is 10-kDa bovine ACBP. Also noted: method as in PMID 8166635. The following applies: read-out: binding affinity; cited from earlier work.
For assay [4], the target named is T2, rAtACBP5 (Arabidopsis thaliana, UniProt Q8RWD9).
T2 sequence (Q8RWD9 1-648): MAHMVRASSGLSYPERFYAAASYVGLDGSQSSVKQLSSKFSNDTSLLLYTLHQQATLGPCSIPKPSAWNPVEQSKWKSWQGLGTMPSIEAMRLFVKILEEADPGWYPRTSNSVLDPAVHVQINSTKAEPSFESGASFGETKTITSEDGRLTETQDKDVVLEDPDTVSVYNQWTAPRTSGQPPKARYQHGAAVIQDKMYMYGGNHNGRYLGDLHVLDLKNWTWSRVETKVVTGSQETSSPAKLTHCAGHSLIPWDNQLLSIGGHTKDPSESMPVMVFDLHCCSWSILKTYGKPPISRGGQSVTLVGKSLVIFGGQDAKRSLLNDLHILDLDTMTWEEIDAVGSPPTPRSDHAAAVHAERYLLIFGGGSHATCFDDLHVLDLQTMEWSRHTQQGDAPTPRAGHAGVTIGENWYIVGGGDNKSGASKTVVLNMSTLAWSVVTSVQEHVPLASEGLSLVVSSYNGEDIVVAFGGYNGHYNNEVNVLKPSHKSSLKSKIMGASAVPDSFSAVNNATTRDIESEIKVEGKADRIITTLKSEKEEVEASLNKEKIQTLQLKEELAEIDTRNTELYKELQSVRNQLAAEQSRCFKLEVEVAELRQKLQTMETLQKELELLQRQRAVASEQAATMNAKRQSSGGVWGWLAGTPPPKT
Briefly: ITC of acyl-CoA esters binding to rAtACBP5.
Description: as §1, §2

The target of assay [5] is T3, rAtACBP4 (Arabidopsis thaliana, UniProt Q9MA55).
T3 sequence (Q9MA55 1-668): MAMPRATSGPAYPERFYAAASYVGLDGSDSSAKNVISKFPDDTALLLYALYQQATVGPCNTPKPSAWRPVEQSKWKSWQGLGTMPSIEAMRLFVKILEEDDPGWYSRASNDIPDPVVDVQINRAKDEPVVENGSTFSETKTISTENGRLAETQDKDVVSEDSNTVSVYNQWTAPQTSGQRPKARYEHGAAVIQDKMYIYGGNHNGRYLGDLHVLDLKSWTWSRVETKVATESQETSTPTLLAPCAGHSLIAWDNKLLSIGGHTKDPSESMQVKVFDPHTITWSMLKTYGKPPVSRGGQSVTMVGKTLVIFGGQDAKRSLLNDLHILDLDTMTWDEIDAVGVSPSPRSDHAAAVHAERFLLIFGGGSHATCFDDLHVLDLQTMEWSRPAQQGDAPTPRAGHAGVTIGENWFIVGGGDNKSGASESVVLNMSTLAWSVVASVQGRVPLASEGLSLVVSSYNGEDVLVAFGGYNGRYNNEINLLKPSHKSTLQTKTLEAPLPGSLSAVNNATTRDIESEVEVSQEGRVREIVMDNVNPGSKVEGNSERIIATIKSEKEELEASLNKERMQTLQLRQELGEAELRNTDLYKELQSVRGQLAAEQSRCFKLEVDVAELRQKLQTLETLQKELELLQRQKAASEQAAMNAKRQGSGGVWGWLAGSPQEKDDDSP
Briefly: ITC of acyl-CoA esters binding to rAtACBP4.
Description: as §1, §2

The test system of assay [6] is Arabidopsis seeds (Col-0 and acbp double/triple mutants). Briefly: Seed germination under ABA treatment. Format: in vivo. The note with it: for seeds germinated / germination rate: 0.2 μM ABA, within 2 days. The method, then: Seeds of wild-type Arabidopsis Col-0 were purchased from the ABRC (Arabidopsis Biological Resource Center). The double and triple mutants of AtACBP4, AtACBP5 and AtACBP6 were generated by crossing the respective single mutants. To sterilize Arabidopsis seeds, a solution containing 20% bleach and 0.1% (v/v) Tween 20 was used. Seeds were subjected to 20 min vigorous shaking in this solution, washed six times in distilled water, and then spread on MS (Murashige and Skoog) medium (Sigma-Aldrich) containing 2% (w/v) sucrose, and 0, 0.2 or 0.4 μM ABA (abscisic acid). After 4°C stratification for 2 days, the plates were placed under 16 h-light/8 h-dark cycles (22°C) in a tissue culture room. The rates of seed germination were scored when radicle protrusion occurred.

[7] abbreviates: ITC, 30°C, 10 mM sodium phosphate buffer pH 7.0.
Where [8] appears, read: ITC, 30°C, 10 mM sodium phosphate buffer pH 7.0, mean of three experiments±S.D., stoichiometry of ligand-to-protein binding.
The mark [9] stands for this setting: ITC, 30°C, 10 mM sodium phosphate buffer pH 7.0, mean of three±S.D.
Where [10] appears, read: ITC, 30°C, 10 mM sodium phosphate buffer pH 7.0, mean of three±S.D., in kcal/mol.
Where [11] appears, read: ITC, 30°C, 10 mM sodium phosphate buffer pH 7.0, mean of three±S.D., read-out: Kd.

For the molecule `CCCCCCCCCCCCCCCC(=O)SCCNC(=O)CCNC(=O)[C@H](O)C(C)(C)COP(=O)(O)OP(=O)(O)OC[C@H]1O[C@@H](n2cnc3c(N)ncnc32)[C@H](O)[C@@H]1OP(=O)(O)O` [16:0, palmitoyl-CoA], the ΔS in assay [1] was -11.5 cal/(mol·K); in assay [4] (setting [7]), -16.7 cal/(mol·K); in assay [5] (setting [7]), -236 cal/(mol·K). In addition, the n was 1 ± 0.1 in assay [1] (mean of three experiments±S.D., stoichiometry of ligand-to-protein binding); 0.9 in assay [4] (setting [8]); 1 in assay [5] (setting [8]). The figures for the ΔH in assay [1] (mean of three±S.D.), in assay [4] (setting [9]) and in assay [5] (setting [9]) were -13.7 ± 2.4 kcal/mol, -11.2 ± 0.5 kcal/mol and -77.4 ± 2.5 kcal/mol, respectively. The ΔG in assay [1] (mean of three±S.D., in kcal/mol) is reported as −10.2±0.0; in assay [4] (setting [10]), −6.2±0.0; in assay [5] (setting [10]), −6.1±0.2. The Kd is 35.9 ± 8.4 nM in assay [1] (mean of three±S.D., read-out: Kd); 5.5 nM in assay [2]; 0.0045 nM in assay [3]; 35700 ± 1000 nM in assay [4] (setting [11]); 23500 ± 27100 nM in assay [5] (setting [11]). Further, the “weaker binding than armadillo ACBP” value in assay [4] (rAtACBP5 versus armadillo ACBP) and in assay [5] (rAtACBP4 versus armadillo ACBP) was 1000 fold throughout.
In the case of `CC1=CC(=O)CC(C)(C)[C@@]1(O)/C=C/C(C)=C\C(=O)O` [ABA, abscisic acid], the seeds germinated in assay [6] (Col-0 seeds) is listed as 60%; in assay [6] (acbp4acbp5acbp6 seeds) it was 19%. Besides, the germination rate in assay [6] (acbp4acbp5 seeds) was 40%; in assay [6] (acbp4acbp6 seeds) it was 32%; in assay [6] (acbp5acbp6 seeds), 33%. Further, the “germination rate in comparison with Col-0” value in assay [6] (all double and triple mutants, 0.4 μM ABA) is on record as “lower germination rates”.
